Measured values: patent US10385103B2, “Cell-permeable (ICP)-SOCS3 recombinant protein and uses thereof” (CELLIVERY THERAPEUTICS, INC., priority 2014, dated 2019)

System: RAW 264.7 cells
Assay: Quantitative cell-permeability of FITC-labeled aMTD- or rPeptide-fused CRA recombinant proteins (flow cytometry)
Type: cell-based
Conditions: for Relative Ratio to aMTD AVE: cell-permeability of rPeptide-fused CRA recombinant protein relative to average of 240 aMTDs
Description: The aMTDs and rPeptides were fluorescently labeled and compared based on the critical factors for cell-permeability by using flow cytometry and confocal laser scanning microscopy (FIGS. 5 to 8). The cellular uptake of the peptide-fused non-functional cargo recombinant proteins could quantitatively be evaluated in flow cytometry, while confocal laser scanning microscopy allows intracellular uptake to be assessed visually. The analysis included recombinant proteins fused to a negative control [rP38] that has opposite characteristics (hydrophilic and aromatic sequence: […] NO: 952)) to the aMTDs (hydrophobic and aliphatic sequences). Relative cell-permeability (relative fold) of aMTDs to the negative control was also analyzed (Table 23 and FIG. 9). […] RAW 264.7 cells were treated with 10 μM FITC-labeled recombinant proteins for 1 hour at 37° C., washed three times with cold PBS, treated with 0.25% tripsin/EDTA (Sigma-Aldrich, St. Louis, Mo.) for 20 minutes at 37° C. to remove cell-surface bound proteins. Cell-permeability of these recombinant proteins were analyzed by flow cytometry (Guava, Millipore, Darmstadt, Germany) using the FlowJo cytometric analysis software (FIGS. 5 to 6).

[1] = cell-permeability of aMTD-fused CRA recombinant protein relative to negative control (A: rP38)
[2] = cell-permeability of aMTD-fused CRA recombinant protein relative to reference CPP (B: MTM12)
[3] = cell-permeability of aMTD-fused CRA recombinant protein relative to reference CPP (C: MTD85)
[4] = cell-permeability relative to negative control rP38 (A type), aMTD-fused CRA recombinant protein, 10 μM FITC-labeled, 1 hour, 37° C., RAW 264.7 cells
[5] = cell-permeability relative to reference CPP MTD85 (C type), aMTD-fused CRA recombinant protein, 10 μM FITC-labeled, 1 hour, 37° C., RAW 264.7 cells
[6] = cell-permeability relative to reference CPP MTM12 (B type), aMTD-fused CRA recombinant protein, 10 μM FITC-labeled, 1 hour, 37° C., RAW 264.7 cells
[7] = 10 μM FITC-labeled, 1 hour, 37° C., RAW 264.7 cells
[8] = relative cell-permeability of rPeptide vs reference A (not defined)
[9] = relative cell-permeability of rPeptide vs reference CPP B: MTM12
[10] = relative cell-permeability of rPeptide vs reference CPP C: MTD85

| Substance | Relative Ratio (Fold) A [1] | Relative Ratio (Fold) B [2] | Relative Ratio (Fold) C [3] | Relative Ratio (Fold) A [4] | Relative Ratio (Fold) C [5] | Relative Ratio (Fold) B [6] | Relative Ratio to aMTD AVE [7] | also measured |
| --- | --- | --- | --- | --- | --- | --- | --- | --- |
| 1 (AAALAPVVLALP; Amino acid Sequence of aMTD1) [compound 1] | 17.7 Fold | 11.8 Fold | 6.0 Fold |  |  |  |  |  |
| 2 (AAAVPLLAVVVP; Amino acid Sequence of aMTD2) [compound 2] | 40.9 Fold | 27.2 Fold | 13.8 Fold |  |  |  |  | Relative Ratio (Fold) A (relative cell-permeability of aMTD vs reference A (not defined)): 40.9 Fold; Relative Ratio (Fold) B (relative cell-permeability of aMTD vs reference CPP B: MTM12): 27.2 Fold; Relative Ratio (Fold) C (relative cell-permeability of aMTD vs reference CPP C: MTD85): 13.8 Fold |
| 3 (AALLVPAAVLAP; Amino acid Sequence of aMTD3) [compound 3] | 27.0 Fold | 18.0 Fold | 9.1 Fold |  |  |  |  |  |
| 4 (ALALLPVAALAP; Amino acid Sequence of aMTD4) [compound 4] |  |  |  | 2.0 Fold | 0.7 Fold | 1.3 Fold |  |  |
| 5 (AAALLPVALVAP; Amino acid Sequence of aMTD5) [compound 5] |  |  |  | 3.1 Fold | 1.0 Fold | 2.1 Fold |  |  |
| 11 (VVALAPALAALP; Amino acid Sequence of aMTD11) [compound 11] | 9.5 Fold | 6.3 Fold | 3.2 Fold |  |  |  |  |  |
| 12 (LLAAVPAVLLAP; Amino acid Sequence of aMTD12) [compound 12] |  |  |  | 2.2 Fold | 0.7 Fold | 1.5 Fold |  |  |
| 13 (AAALVPVVALLP; Amino acid Sequence of aMTD13) [compound 13] |  |  |  | 7.0 Fold | 2.4 Fold | 4.7 Fold |  |  |
| 16 (NNSCTTYTNGSQ; Amino acid Sequence of rPeptide ID 16) [compound 16] |  |  |  |  |  |  | 0.08 | Relative Ratio (Fold) A [8]: 1.6 Fold; Relative Ratio (Fold) B [9]: 1.1 Fold; Relative Ratio (Fold) C [10]: 0.5 Fold |
| 17 (GGCSAPQTTCSN; Amino acid Sequence of rPeptide ID 17) [compound 17] |  |  |  |  |  |  | 0.08 |  |
| 18 (NYCCTPTTNGQS; Amino acid Sequence of rPeptide ID 18) [compound 18] |  |  |  |  |  |  | 0.10 |  |
| 21 (AVALLPALLAVP; Amino acid Sequence of aMTD21) [compound 21] | 18.9 Fold | 12.6 Fold | 6.4 Fold |  |  |  |  |  |
| 24 (IALAAPALIVAP; Amino acid Sequence of aMTD24) [compound 24] |  |  |  | 2.3 Fold | 0.8 Fold | 1.6 Fold |  |  |
| 25 (IVAVAPALVALP; Amino acid Sequence of aMTD25) [compound 25] |  |  |  | 2.4 Fold | 0.8 Fold | 1.6 Fold |  |  |
| 26 (AAIALAAPLAIV; Amino acid Sequence of rPeptide ID 26) [compound 26] |  |  |  |  |  |  | 0.65 |  |
| 29 (VLPPLPVLPVLP; Amino acid Sequence of rPeptide ID 29) [compound 29] |  |  |  |  |  |  | 0.07 | Relative Ratio (Fold) A [8]: 1.4 Fold; Relative Ratio (Fold) B [9]: 0.9 Fold; Relative Ratio (Fold) C [10]: 0.5 Fold |
| 38 (YYNQSTCGGQCY; Amino acid Sequence of rPeptide ID 38) [compound 38] |  |  |  |  |  |  | 0.05 |  |
| 39 (CYNTSPCTGCCY; Amino acid Sequence of rPeptide ID 39) [compound 39] |  |  |  |  |  |  | 0.29 |  |
| 43 (LLAAPLVVAAVP; Amino acid Sequence of aMTD43) [compound 43] |  |  |  | 2.1 Fold | 0.7 Fold | 1.4 Fold |  |  |
| 61 (VAALPVLLAALP; Amino acid Sequence of aMTD61) [compound 61] | 31.2 Fold | 20.8 Fold | 10.5 Fold |  |  |  |  |  |
